What was measured:
PC-3 = assay: CCK-8 tumor cell proliferation, PC-3; format: cell-based, Human; details: 96 h
Description: (§1) The tumor cells used herein were cultured in a cell culture medium listed in table 4 at 37° C. in an incubator with 5% CO2. Prior to experimentation, all cells used were correctly identified by STR profiling, and tested negative for mycoplasma through routine screenings.
(§2) IC50 values of the compounds of the present disclosure (including the compounds in Tables 1 and 3, and compounds of examples) were measured using the Meilun Cell Counting Kit-8 kit from Dalian Meilun Biotech Co., Ltd. Assay details are as follows: tumor cells were seeded in a 96-well plate at a density listed in Table 5. After 24 h, 100 μL of the inoculated cells were treated with 0.5 μL of the compounds of the present disclosure (including the compounds in Tables 1 and 3, and compounds of examples) at 10 different successively decreasing concentrations (starting at the highest concentration of 10 μM; 5-fold serial dilutions). After the cells were treated with the compounds of the present disclosure for a period of time, the cell viability detection reagent was added to the culture medium for cell viability assessment according to the instructions provided with the CCK-8 kit. […] The growth inhibition of the compounds of the present disclosure on cells was plotted by Prism Graphpad software, and the IC50 values of the compounds of the present disclosure were calculated therefrom.

NCI-H358 = assay: CCK-8 tumor cell proliferation, NCI-H358; parameters: species or system Human; details: Table 11, designed based on EGFR inhibitors; 96 h
Description: The tumor cells used herein were cultured in a cell culture medium listed in table 4 at 37° C. in an incubator with 5% CO2.
as §2, with “After” for “IC50 values of the compounds of the present disclosure (including the compounds in Tables 1 and 3, and compounds of examples) were measured using the Meilun Cell Counting Kit-8 kit from Dalian Meilun Biotech Co., Ltd. Assay details are as follows: tumor cells were seeded in a 96-well plate at a density listed in Table 5. After”

PC-9 = assay: CCK-8 tumor cell proliferation, PC-9; format: cell-based, Human; details: Table 11, designed based on EGFR inhibitors; 96 h
HCC827 = assay: CCK-8 tumor cell proliferation, HCC827; format: cell-based, Human; details: Table 11, designed based on EGFR inhibitors; 96 h
Daudi = assay: CCK-8 tumor cell proliferation, Daudi; parameters: species or system Human; details: Table 13, designed based on BCR-ABL inhibitors; 96 h
Description: as §1, §2

Kasumi-1 = assay: CCK-8 tumor cell proliferation, Kasumi-1; format: cell-based, Human; details: for IC50 for inhibiting the proliferation of tumor cells, Kasumi-1: 72 h
Outline: (§3)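 Authenticated cells, kept at 37 °C and 5% CO2, were given compound a day after plating; doses spanned 10 levels in 5-fold decrements from 10 μM. IC50 values come from CCK-8 viability readings.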

Mino = assay: CCK-8 tumor cell proliferation, Mino; format: cell-based, Human; details: for IC50 for inhibiting the proliferation of tumor cells, Mino: 72 h
Outline: as §3

CCRF-CEM = assay: CCK-8 tumor cell proliferation, CCRF-CEM; format: cell-based, Human; parameters: IC50 for inhibiting the proliferation of tumor cells, CCRF-CEM: scale not given here; details: for IC50 for inhibiting the proliferation of tumor cells, CCRF-CEM: Table 16, designed based on BET inhibitors, 96 h
Outline: as §3

SW620 = assay: CCK-8 tumor cell proliferation, SW620; format: cell-based, Human; details: Homo sapiens, SW-620; Table 19, IRAK4 inhibitor based; SW620; read-out: IC50 inhibiting proliferation of tumor cells, SW620
Outline: as §3

MV-4-11 = assay: CCK-8 tumor cell proliferation, MV-4-11; format: cell-based, Human; details: Homo sapiens, MV4-11; Table 19, IRAK4 inhibitor based; MV-4-11; read-out: IC50 inhibiting proliferation of tumor cells, MV-4-11
Outline: as §3

Jurkat = assay: CCK-8 tumor cell proliferation, Jurkat; format: cell-based, Human; details: Homo sapiens, Table 19, IRAK4 inhibitor based, read-out: IC50 inhibiting proliferation of tumor cells, Jurkat
Outline: as §3

CAL-62 = assay: CCK-8 tumor cell proliferation, CAL-62; format: cell-based, Human; details: Homo sapiens; Table 19, IRAK4 inhibitor based; CAL-62; read-out: IC50 inhibiting proliferation of tumor cells, CAL-62
Outline: as §3

NCI-H1666 = assay: CCK-8 tumor cell proliferation, NCI-H1666; format: cell-based, Human; details: Homo sapiens, Table 19, IRAK4 inhibitor based, read-out: IC50 inhibiting proliferation of tumor cells, NCI-H1666
Description: as §1, §2

SU-DHL-4 = assay: CCK-8 tumor cell proliferation, SU-DHL-4; format: cell-based, Human; details: Homo sapiens, Table 19, IRAK4 inhibitor based, read-out: IC50 inhibiting proliferation of tumor cells, SU-DHL-4
Outline: as §3

MM.1R = assay: CCK-8 tumor cell proliferation, MM.1R; format: cell-based; details: Table 19, IRAK4 inhibitor based, read-out: IC50 inhibiting proliferation of tumor cells, MM.1R
Outline: as §3

[1] = Table 13, designed based on BCR-ABL inhibitors
[2] = Table 16, designed based on BET inhibitors

N#Cc1ccc(O[C@H]2CC[C@H](NC(=O)c3ccc(N4CCC(N5CCN(Cc6ccc7c(c6)CN(C6CCC(=O)NC6=O)C7=O)CC5)CC4)nn3)CC2)cc1Cl (stereo partly drawn) [GT-02989, N-((1r,4r)-4-(3-chloro-4-cyanophenoxy)cyclohexyl)-6-(4-(4-((2-(2,6-dioxopiperidin-3-yl)-1-oxoisoindolin-5-yl)methyl)piperazin-1-yl)piperidin-1-yl)pyridazine-3-carboxamide]
IC50 for inhibiting the proliferation of tumor cells, PC-3 (PC-3; Table 10, designed based on AR inhibitors): A+

COc1cc2ncnc(Nc3ccc(F)c(Cl)c3)c2cc1NC(=O)/C=C/CN1CCN(Cc2ccc3c(c2)CN(C2CCC(=O)NC2=O)C3=O)CC1 (stereo not drawn) [GT-03265, (E)-N-(4-((3-chloro-4-fluorophenyl)amino)-7-methoxyquinazolin-6-yl)-4-(4-((2-(2,6-dioxopiperidin-3-yl)-1-oxoisoindolin-5-yl)methyl)piperazin-1-yl)but-2-enamide]
IC50 for inhibiting the proliferation of tumor cells, NCI-H358 (NCI-H358): A+ | IC50 for inhibiting the proliferation of tumor cells, PC-9 (PC-9): A+ | IC50 for inhibiting the proliferation of tumor cells, HCC827 (HCC827): A+

COc1cc2ncnc(Nc3ccc(Cl)c(Cl)c3F)c2cc1OCc1ccc2c(c1)CN(C1CCC(=O)NC1=O)C2=O (stereo not drawn) [GT-03354, 3-(5-(((4-((3,4-dichloro-2-fluorophenyl)amino)-7-methoxyquinazolin-6-yl)oxy)methyl)-1-oxoisoindolin-2-yl)piperidine-2,6-dione]
IC50 for inhibiting the proliferation of tumor cells, NCI-H358 (NCI-H358): A+

Cc1ccc(NC(=O)c2ccc(CNCc3ccc4c(c3)CN(C3CCC(=O)NC3=O)C4=O)cc2)cc1Nc1nccc(-c2cccnc2)n1 (stereo not drawn) [GT-03377, 4-((((2-(2,6-dioxopiperidin-3-yl)-1-oxoisoindolin-5-yl)methyl)amino)methyl)-N-(4-methyl-3-((4-(pyridin-3-yl)pyrimidin-2-yl)amino)phenyl)benzamide]
IC50 for inhibiting the proliferation of tumor cells, Daudi (Daudi): A+ | IC50 for inhibiting the proliferation of tumor cells, Kasumi-1 (Kasumi-1; [1]): A+ | IC50 for inhibiting the proliferation of tumor cells, Mino (Mino; [1]): A+

COc1cc2ncnc(Nc3ccc(Cl)c(Cl)c3F)c2cc1OC1CCN(Cc2ccc3c(c2)CN(C2CCC(=O)NC2=O)C3=O)CC1 (stereo not drawn) [GT-03412, 3-(5-((4-((4-((3,4-dichloro-2-fluorophenyl)amino)-7-methoxyquinazolin-6-yl)oxy)piperidin-1-yl)methyl)-1-oxoisoindolin-2-yl)piperidine-2,6-dione]
IC50 for inhibiting the proliferation of tumor cells, NCI-H358 (NCI-H358): A+ | IC50 for inhibiting the proliferation of tumor cells, PC-9 (PC-9): A+

Cc1sc2c(c1C)C(c1ccc(Cl)cc1)=N[C@@H](CC(=O)NCCN1CCN(Cc3ccc4c(c3)CN(C3CCC(=O)NC3=O)C4=O)CC1)c1nnc(C)n1-2 (stereo partly drawn) [GT-03296, 2-((S)-4-(4-chlorophenyl)-2,3,9-trimethyl-6H-thieno[3,2-f][1,2,4]triazolo[4,3-a][1,4]diazepin-6-yl)-N-(2-(4-((2-(2,6-dioxopiperidin-3-yl)-1-oxoisoindolin-5-yl)methyl)piperazin-1-yl)ethyl)acetamide]
IC50 for inhibiting the proliferation of tumor cells, Kasumi-1 (Kasumi-1; [2]): A+ | IC50 for inhibiting the proliferation of tumor cells, PC-3 (PC-3; [2]): A+ | IC50 for inhibiting the proliferation of tumor cells, CCRF-CEM (CCRF-CEM): A+ | IC50 for inhibiting the proliferation of tumor cells, Mino (Mino; [2]): A+

C=CC(=O)Nc1cc2c(Nc3ccc(F)c(Cl)c3)ncnc2cc1OCCCN1CCN(Cc2ccc3c(c2)CN(C2CCC(=O)NC2=O)C3=O)CC1 (stereo not drawn) [GT-03411, N-(4-((3-chloro-4-fluorophenyl)amino)-7-(3-(4-((2-(2,6-dioxopiperidin-3-yl)-1-oxoisoindolin-5-yl)methyl)piperazin-1-yl)propoxy)quinazolin-6-yl)acrylamide]
IC50 for inhibiting the proliferation of tumor cells, NCI-H358 (NCI-H358): A+ | IC50 for inhibiting the proliferation of tumor cells, PC-9 (PC-9): A+

Cc1sc2c(c1C)C(c1ccc(Cl)cc1)=N[C@@H](CC(=O)OC(C)(C)C)c1nnc(C)n1-2 [JQ-1, reference compound]
IC50 (PC-3; Table 16, designed based on BET inhibitors, read-out: IC50 for inhibiting the proliferation of tumor cells, PC-3): > 10000 nM

Cc1nc(Nc2ncc(C(=O)Nc3c(C)cccc3Cl)s2)cc(N2CCC(N(C)Cc3ccc4c(c3)CN(C3CCC(=O)NC3=O)C4=O)CC2)n1 (stereo not drawn) [GT-03545, N-(2-chloro-6-methylphenyl)-2-((6-(4-(((2-(2,6-dioxopiperidin-3-yl)-1-oxoisoindolin-5-yl)methyl)(methyl)amino)piperidin-1-yl)-2-methylpyrimidin-4-yl)amino)thiazole-5-carboxamide]
IC50 for inhibiting the proliferation of tumor cells, Daudi (Daudi): A+ | IC50 for inhibiting the proliferation of tumor cells, Mino (Mino; [1]): A+

O=C1CCC(N2Cc3cc(CN4CCC(n5cc(NC(=O)c6cnn7ccc(N8CCOCC8)nc67)c(C(F)F)n5)CC4)c(F)cc3C2=O)C(=O)N1 (stereo not drawn) [GT-03811, N-(3-(difluoromethyl)-1-(1-((2-(2,6-dioxopiperidin-3-yl)-6-fluoro-1-oxoisoindolin-5-yl)methyl)piperidin-4-yl)-1H-pyrazol-4-yl)-5-morpholinopyrazolo[1,5-a]pyrimidine-3-carboxamide]
IC50 (SW620): < 50 nM | IC50 (Kasumi-1; Homo sapiens, Table 19, IRAK4 inhibitor based, Kasumi-1, read-out: IC50 inhibiting proliferation of tumor cells, Kasumi-1): < 50 nM | IC50 (MV-4-11): < 50 nM | IC50 (Jurkat): < 50 nM | IC50 (CAL-62): < 50 nM | IC50 (CCRF-CEM; Homo sapiens, Table 19, IRAK4 inhibitor based, CCRF-CEM, read-out: IC50 inhibiting proliferation of tumor cells, CCRF-CEM): < 50 nM | IC50 (NCI-H1666): 50 to 100 nM | IC50 (Mino; Homo sapiens, Table 19, IRAK4 inhibitor based, Mino, read-out: IC50 inhibiting proliferation of tumor cells, Mino): < 50 nM | IC50 (SU-DHL-4): 100 to 500 nM | IC50 (MM.1R): < 50 nM

Cc1ccc(NC(=O)c2ccc(CN3CCN(Cc4ccc5c(c4)CN(C4CCC(=O)NC4=O)C5=O)CC3)cc2)cc1Nc1nccc(-c2cccnc2)n1 (stereo not drawn) [GT-02969, 4-((4-((2-(2,6-dioxopiperidin-3-yl)-1-oxoisoindolin-5-yl)methyl)piperazin-1-yl)methyl)-N-(4-methyl-3-((4-(pyridin-3-yl)pyrimidin-2-yl)amino)phenyl)benzamide]
IC50 for inhibiting the proliferation of tumor cells, Daudi (Daudi): A+

COc1cc(OC)c2c(=O)[nH]c(-c3ccc(N4CCC(N5CCN(Cc6ccc7c(c6)CN(C6CCC(=O)NC6=O)C7=O)CC5)CC4)cc3)nc2c1 (stereo not drawn) [GT-03708, 3-(5-((4-(1-(4-(5,7-dimethoxy-4-oxo-3,4-dihydroquinazolin-2-yl)phenyl)piperidin-4-yl)piperazin-1-yl)methyl)-1-oxoisoindolin-2-yl)piperidine-2,6-dione]
IC50 for inhibiting the proliferation of tumor cells, PC-3 (PC-3; [2]): A+ | IC50 for inhibiting the proliferation of tumor cells, CCRF-CEM (CCRF-CEM): A+ | IC50 for inhibiting the proliferation of tumor cells, Mino (Mino; [2]): A+
